Measurements reported in US20010036948A1 (priority 1998, published 2001).
“And” between values parts separate entries of the source, which are not always exact repeats. Equal values may be shown once.

Assays:
[1] = tested on: T/G Human Aortic Smooth Muscle Cells; format: cell-based; on Growth score: key: −: Lethal treatment, no cells left viable, all rounded, shriveled and dead; −/+: Some treated cells remain viable, about equal amount of clearly dead cells; +/−: Most cells remain viable, detectable number of dead cells; 1+: All cells appear viable, same density as when treated; 2+: Minimal proliferation, compared to control; 3+: Moderate proliferation compared to control; 4+: Maximal growth, unaffected by treatment
[2] = tested on: T/G HA-VSMC cells (human aortic smooth muscle cell system); format: cell-based
Vero cells = format: cell-based, monkey

| SMILES | Growth score [1] | Effect on the increase in the number of cultured cells [2] | Effect on the increase in the number of cultured cells (Vero cells) | Effect on the increase in the number of cultured cells [1] |
| --- | --- | --- | --- | --- |
| NC(Cc1ccc(N(CCCl)CCCl)cc1)C(=O)O (centres unmarked) [Melphalan, melphalan, reference compound] | 2+ and 1+ and 3+ and 4+ |  |  |  |
| O=C(CCNc1c2ccccc2nc2ccccc12)OCCN(CCCl)CCCl [β-alanine, N-(acridin-9-yl), 2-[bis(2-chloroethyl)amino]ethyl ester] | −/+ and 1+ and +/− and 3+ and 4+ | inhibited the increase in the number | inhibited the increase in the number | inhibited the increase in the number of cultured Human Aortic Smooth Muscle Cells in a dose-dependent manner with a relatively broad therapeutic window |
